{"source": "patent US11160785B2", "about": "“Methods and compositions for improving cognitive function” (AgeneBio, Inc., priority 2013, dated 2021)", "key": {"aged-impaired rats (AI)": {"system": "aged-impaired rats (AI)", "assay_type": "in vivo, rat", "method": "FIG. 1 depicts the effects of administering levetiracetam on the spatial memory retention of ten aged-impaired rats (AI) in an eight-arm Radial Arm Maze (RAM) test. Six treatment conditions are employed: vehicle control, levetiracetam (1.25 mg/kg/day), levetiracetam (2.5 mg/kg/day), levetiracetam (5 mg/kg/day), levetiracetam (10 mg/kg/day) and levetiracetam (20 mg/kg/day). In the RAM task used, there is a one-hour delay between presentation of a subset of arms (5 arms available and 3 arms blocked) and completion of the eight-arm win-shift task (eight arms available). Rats are pre-treated 30-40 minutes before daily trials with a one-time drug/control treatment. The number of errors made by the rats during the retention phase is used as a measure of spatial memory retention. Errors are defined as instances when rats enter an arm from which food has already been retrieved in the pre-delay component of the trial or when rats re-visit an arm in the post-delay session that had already been visited. Paired t-tests are used to compare the number of errors between different doses of levetiracetam and vehicle control. […]\nA Radial Arm Maze (RAM) behavioral task is one example of a cognitive test, specifically testing spacial memory (Chappell et al. Neuropharmacology 37: 481-487, 1998). The RAM apparatus consists of, e.g., eight equidistantly spaced arms. A maze arm projects from each facet of a center platform. A food well is located at the distal end of each arm. Food is used as a reward. Blocks can be positioned to prevent entry to any arm. Numerous extra maze cues surrounding the apparatus may also be provided. After habituation and training phases, spatial memory of the subjects may be tested in the RAM under control or test compound-treated conditions. As a part of the test, subjects are pretreated before trials with a vehicle control or one of a range of dosages of the test compound. At the beginning of each trial, a subset of the arms of the eight-arm maze is blocked. Subjects are allowed to obtain food on the unblocked arms to which access is permitted during this initial “information phase” of the trial. Subjects are then removed from the maze for a delay period, e.g., a 60 second delay, a 15 minute delay, a one-hour delay, a two-hour delay, a six hour delay, a 24 hour delay, or longer) between the information phase and the subsequent “retention test,” during which the barriers on the maze are removed, thus allowing access to all eight arms. […] The identity and configuration of the blocked arms vary across trials. The number of “errors” the subjects make during the retention test phase is tracked. An error occurs in the trial if the subjects entered an arm from which food had already been retrieved in the pre-delay component of the trial, or if it re-visits an arm in the post-delay session that had already been visited. A fewer number of errors would indicate better spatial memory. The number of errors made by the test subject, under various test compound treatment regimes, can then be compared for efficacy of the test compound in treating cognitive impairment associated with CNS disorders."}, "[1]": {"system": "DG/CA3 regions of aMCI subjects", "assay": "fMRI activity in DG/CA3 during lure stimuli correctly identified as similar", "assay_type": "in vivo, human"}, "[2]": {"system": "reelin in Entorhinal Cortex (EC2)", "assay": "reelin in entorhinal cortex after four weeks of osmotic minipump treatment (Example 5)", "assay_type": "in vivo, rat", "conditions": "levetiracetam 10 mg/kg/day in osmotic minipumps for four weeks, aged-impaired rats"}, "[3]": {"system": "reelin in Entorhinal Cortex (EC2)", "assay": "Reelin mRNA in situ hybridization in entorhinal cortex of aged-impaired rats", "assay_type": "in vivo, rat", "conditions": "10 mg/kg/day for 28 days, compared to AI-VEH, p=0.033", "method": "In situ hybridization was carried out as described by Haberman et al., (2008). Free-floating tissue sections were washed in 0.75% glycine in 0.1M phosphate buffer two times, followed by a single wash in phosphate buffer. After that, sections were reacted in Proteinase K buffer containing 1.0 μg/ml proteinase K for 30 minutes at 37° C. Sections were then treated with acetic anhydride solution (11.3% triethanolamine, 0.25% acetic anhydride, 0.04 M acetic acid) for 10 minutes at room temperature. This was followed by two 15-minute washes in 2× sodium chloride/citrate buffer (SSC buffer; 20× concentration, 3M NaCl, 0.3M sodium citrate). Next, sections were transferred to hybridization buffer containing 20% formamide, 0.4×Denhardt's solution, 4% dextran sulfate, and 1.6×SSC) supplemented with 0.25 mg/ml tRNA, 0.33 mg/ml sheared salmon sperm DNA, 100 mM DTT, and 1×10^7 cpm/ml 35S-UTP-labeled probe for overnight reaction at 60° C. The following day, sections were washed at 60° C. in 4×SSC/0.01M DTT and 2×SSC/50% formamide. They were then incubated with RNase (20 μg/ml) at 37° C. for 30 min. […] Slides were dried overnight, exposed to a phosphoimager screen, and quantified by using ImageQuant (GE Healthcare). Digital images were acquired of entorhinal cortical sections from the same levels for all animals and the subregion of interest was outlined and quantified. […]"}}, "note": "Read-outs that look alike come from different tables or passages of the source.", "data": [{"smiles": "CC[C@@H](C(N)=O)N1CCCC1=O", "note": "[levetiracetam, (2S)-2-(2-oxopyrrolidin-1-yl) butanamide]", "values": [{"measurement": "memory performance relative to vehicle control treatment", "setting": "aged-impaired rats (AI)", "result": "significantly improves memory performance"}, {"measurement": "human equivalent dose (HED) of the effective rat dose", "setting": "aged-impaired rats (AI); HED for a 70 kg human", "result": "28-56 mg twice a day"}, {"measurement": "human equivalent dose (HED) of the effective rat dose", "setting": "aged-impaired rats (AI); body surface area conversion of 5-10 mg/kg in rats", "result": "0.8 to 1.6", "unit": "mg/kg/day"}, {"measurement": "average no. of errors±standard error of the mean (SEM)", "setting": "aged-impaired rats (AI); levetiracetam 5 mg/kg/day i.p. 30-40 min before trial, one-hour delay, n=10, vehicle 2.00±0.42", "result": "0.75±0.32"}, {"measurement": "memory performance relative to vehicle control treatment", "setting": "aged-impaired rats (AI); levetiracetam 10 mg/kg/day i.p., one-hour delay, paired t-test t(9)=2.37, p=0.042", "result": "significantly improves memory performance"}, {"measurement": "performance of AI rats in the radial maze task", "setting": "aged-impaired rats (AI); levetiracetam 20 mg/kg, FIG. 1", "result": "fails to improve the performance of AI rats"}, {"measurement": "memory performance in AI rats", "setting": "aged-impaired rats (AI); rat, in vivo", "result": "does not significantly improve the memory performance"}, {"measurement": "DG/CA3 hyperactivity during successful memory judgments", "setting": "[1]; levetiracetam 62.5 mg BID for two weeks, cohort N=20", "result": "does not significantly reduce the DG/CA3 hyperactivity"}, {"measurement": "DG/CA3 activity during successful memory judgments", "setting": "[1]; levetiracetam 125 mg twice a day for two weeks vs placebo, same aMCI subjects, p=0.037", "result": "reduces DG/CA3 hyper-activity"}, {"measurement": "DG/CA3 hyperactivity during successful memory judgments", "setting": "[1]; levetiracetam 250 mg BID for two weeks, cohort N=17", "result": "does not significantly reduce the DG/CA3 hyperactivity"}, {"measurement": "reelin in Entorhinal Cortex (EC2)", "setting": "[2]", "result": "restores reelin in Entorhinal Cortex (EC2)"}, {"measurement": "reelin mRNA expression in the lateral entorhinal cortex (EC2)", "setting": "[3]", "result": "significantly increased the expression of reelin"}]}]}
